Experimental data from patent publication US20090159876A1, “ORGANIC SEMICONDUCTOR MATERIAL AND ORGANIC FIELD EFFECT TRANSISTOR” (MITSUBISHI CHEMICAL CORPORATION, priority 2005, published 2009).
Where two headings read alike, the source gives them in different places.

Legend:
[1] = Evaluation of ionization potential of film by photoelectron spectrometer; assay type: physicochemical; settings: film spin-coated from chloroform on quartz substrate (α-6T: film deposited under vacuum); solid state
Experimental: The ionization potential is preferably determined by the method of measuring a sample in a solid state through photoelectron spectroscopy. Examples of the simple devices include a photoelectron spectrometer, model AC-1 (or its successor device) available from Riken Keiki Co., Ltd.
The oligothiophene A (hexamer) (50 mg) prepared in Synthesis 4 was dissolved in chloroform (1 mL) to prepare a solution. This solution was spin-coated on a 2.5 by 2.5 cm^2 quartz substrate available from Furuuchi Chemical Corporation at 1000 rpm. A satisfactory film was produced. The ionization potential (Ip) of this film was determined with a photoelectron spectrometer Model PCR-101 available from Sumitomo Heavy Industries Advanced Machinery. As a reference, an α-6T film deposited on a quartz substrate under vacuum was used (See Comparative Example 1 described below). FIG. 4 is a graph of the ionization potentials observed. The ionization potential (Ip) of the oligothiophene A (hexamer) was 5.34 eV, while that of α-6T was 4.7 eV.

[2] = Evaluation of crystallinity of film by X-ray diffractometry; assay type: physicochemical; settings: for Crystallinity of Film: In-Plane X-ray diffractometry of film
Experimental: X-ray diffractometry was conducted for the oligothiophene film formed of the oligothiophene A (hexamer) prepared in [Evaluation of Ionization Potential] using a RINT-2000/PC available from Rigaku Corporation.

[3] = Evaluation of solubility in specific solvents at 30° C.; assay type: physicochemical
Experimental: The oligothiophene A (hexamer) was dissolved in each of toluene, xylene, ethylbenzene, mesitylene, cyclopentanone, cyclohexanone, methyl chloride, carbon tetrachloride, chlorobenzene, dichlorobenzene, trichlorobenzene, nitrobenzene, methyl ethyl ketone, benzoic acid esters, anisole, phenetole, butyl phenyl ether, methoxytoluene, and benzyl ethyl ether at 30° C., and each solubility was determined. […] In Table 1, the mark o indicates the case where the solubilities of 0.1% by weight and 0.3% by weight for each solvent were observed, and the mark X indicates the other case.

[4] = usual value of representative thiophene materials; cited from earlier work
[5] = 30° C., toluene, xylene, ethylbenzene, mesitylene, cyclopentanone, cyclohexanone and other listed solvents

CCCCCCc1ccc(-c2ccc(-c3sc(-c4cc(-c5ccc(CC)cc5)c(-c5ccc(-c6ccc(CCCCCC)s6)s5)s4)cc3-c3ccc(CC)cc3)s2)s1 [Example 1]
Ionization Potential [1]: 5.34 eV | Crystallinity of Film [2]: ◯ | Crystallinity of film (in words) ([2]; In-Plane X-ray diffractometry of spin-coated film): crystalline semiconductor layer | Solubility in Specific Solvents 0.1% by weight [3, 5]: ◯ | Solubility in Specific Solvents 0.3% by weight [3, 5]: ◯

CCCCCCc1ccc(-c2ccc(-c3ccc(-c4sc(-c5cc(-c6ccc(CC)cc6)c(-c6ccc(-c7ccc(-c8ccc(CCCCCC)s8)s7)s6)s5)cc4-c4ccc(CC)cc4)s3)s2)s1 [Example 2]
Ionization Potential [1]: 5.24 eV | Crystallinity of Film [2]: ◯ | Solubility in Specific Solvents 0.1% by weight [3]: ◯ | Solubility in Specific Solvents 0.3% by weight [3]: ◯

CCCCCCc1ccc(-c2ccc(-c3ccc(-c4ccc(-c5sc(-c6cc(-c7ccc(CC)cc7)c(-c7ccc(-c8ccc(-c9ccc(-c%10ccc(CCCCCC)s%10)s9)s8)s7)s6)cc5-c5ccc(CC)cc5)s4)s3)s2)s1 [Example 3]
Ionization Potential [1]: 5.26 eV | Crystallinity of Film [2]: ◯ | Solubility in Specific Solvents 0.1% by weight [3]: ◯ | Solubility in Specific Solvents 0.3% by weight [3]: ◯

CCCCCCc1ccc(-c2ccc(-c3ccc(-c4ccc(-c5sc(-c6ccc(CCCCCC)s6)cc5-c5ccc(CC)cc5)s4)s3)s2)s1 [Example 5]
Ionization Potential [1]: 5.24 eV | Crystallinity of Film [2]: ◯ | Solubility in Specific Solvents 0.1% by weight [3]: ◯ | Solubility in Specific Solvents 0.3% by weight [3]: ◯

CCCCCCc1ccc(-c2ccc(-c3ccc(-c4ccc(-c5ccc(-c6sc(-c7cc(-c8ccc(CC)cc8)c(-c8ccc(-c9ccc(-c%10ccc(-c%11ccc(-c%12ccc(CCCCCC)s%12)s%11)s%10)s9)s8)s7)cc6-c6ccc(CC)cc6)s5)s4)s3)s2)s1 [Example 6]
Ionization Potential [1]: 5.18 eV | Crystallinity of Film [2]: ◯ | Solubility in Specific Solvents 0.1% by weight [3, 5]: ◯ | Solubility in Specific Solvents 0.3% by weight [3, 5]: ◯

CCCCCCc1ccc(-c2cc(-c3ccc(CC)cc3)c(-c3ccc(-c4ccc(-c5ccc(-c6sc(-c7cc(-c8ccc(CC)cc8)c(-c8ccc(-c9ccc(-c%10ccc(-c%11sc(-c%12ccc(CCCCCC)s%12)cc%11-c%11ccc(CC)cc%11)s%10)s9)s8)s7)cc6-c6ccc(CC)cc6)s5)s4)s3)s2)s1 [Example 7]
Ionization Potential [1]: 5.46 eV | Crystallinity of Film [2]: ◯ | Solubility in Specific Solvents 0.1% by weight [3]: ◯ | Solubility in Specific Solvents 0.3% by weight [3]: ◯

c1csc(-c2ccc(-c3ccc(-c4ccc(-c5ccc(-c6cccs6)s5)s4)s3)s2)c1 [α-6T, α-sezithiophene, reference compound]
Ionization Potential [1]: 4.7 eV | Crystallinity of Film [2]: ◯ | Solubility in Specific Solvents 0.1% by weight [3]: ◯ | Solubility in Specific Solvents 0.3% by weight [3]: ◯ | ionization potential (Ip) [4]: about 4.7 eV
